From paper PMC7313537 (PLoS ONE, 2020)

Columns and labels:
Assay in all cases: Broader kinase panel (PerkinElmer)
Type in all cases: biochemical
AKT2 = target: T1, AKT2 (Homo sapiens, UniProt P31751); conditions: 100 nM; read-out: Average Percent Inhibition
T1 construct: purchased In-house HTRF panel (56 kinases) and PerkinElmer (161-kinase panel)
Description: (§1) […]. […] […].

RET = RET (Homo sapiens, UniProt P07949); conditions: 100 nM; read-out: Average Percent Inhibition
Description: as §1

Flt3(D835Y) = target: T2, Flt3(D835Y) (Homo sapiens, UniProt P36888, D835Y); conditions: 100 nM; read-out: Average Percent Inhibition
T2 construct: purchased In-house HTRF panel (56 kinases) and PerkinElmer (161-kinase panel)
Description: as §1

PAK2 = target: T3, PAK2 (Homo sapiens, UniProt Q13177); conditions: 100 nM; read-out: Average Percent Inhibition
T3 construct: purchased In-house HTRF panel (56 kinases) and PerkinElmer (161-kinase panel)
Description: as §1

PKA = target: T4, PKA (Homo sapiens, UniProt P17612); conditions: 100 nM; read-out: Average Percent Inhibition
T4 construct: purchased In-house HTRF panel (56 kinases) and PerkinElmer (161-kinase panel)
Description: as §1

EPHB4 = target: T5, EPHB4 (Homo sapiens, UniProt P54760); conditions: 100 nM; read-out: Average Percent Inhibition
T5 construct: purchased In-house HTRF panel (56 kinases) and PerkinElmer (161-kinase panel)
Description: as §1

DAPK1 = target: T6, DAPK1 (Homo sapiens, UniProt P53355); conditions: 100 nM; read-out: Average Percent Inhibition
T6 construct: purchased In-house HTRF panel (56 kinases) and PerkinElmer (161-kinase panel)
Description: as §1

PHKG2 = target: T7, PHKG2 (Homo sapiens, UniProt P15735); conditions: 100 nM; read-out: Average Percent Inhibition
T7 construct: purchased In-house HTRF panel (56 kinases) and PerkinElmer (161-kinase panel)
Description: as §1

INSR = target: T8, INSR (Homo sapiens, UniProt P06213); conditions: 100 nM; read-out: Average Percent Inhibition
T8 construct: purchased In-house HTRF panel (56 kinases) and PerkinElmer (161-kinase panel)
Description: as §1

FES = target: T9, FES (Homo sapiens, UniProt P07332); conditions: 100 nM; read-out: Average Percent Inhibition
T9 construct: purchased In-house HTRF panel (56 kinases) and PerkinElmer (161-kinase panel)
Description: as §1

Abl (H396P) = target: T10, Abl (H396P) (Homo sapiens, UniProt P00519, H396P); conditions: 100 nM; read-out: Average Percent Inhibition
T10 construct: purchased In-house HTRF panel (56 kinases) and PerkinElmer (161-kinase panel)
Description: as §1

Hck = target: T11, Hck (Homo sapiens, UniProt P08631); conditions: 100 nM; read-out: Average Percent Inhibition
T11 construct: purchased In-house HTRF panel (56 kinases) and PerkinElmer (161-kinase panel)
Description: as §1

AXL = target: T12, AXL (Homo sapiens, UniProt P30530); conditions: 100 nM; read-out: Average Percent Inhibition
T12 construct: purchased In-house HTRF panel (56 kinases) and PerkinElmer (161-kinase panel)
Description: as §1

PASK = target: T13, PASK (Homo sapiens, UniProt Q96RG2); conditions: 100 nM; read-out: Average Percent Inhibition
T13 construct: purchased In-house HTRF panel (56 kinases) and PerkinElmer (161-kinase panel)
Description: as §1

FLT1 = target: T14, FLT1 (Homo sapiens, UniProt P17948); conditions: 100 nM; read-out: Average Percent Inhibition
T14 construct: purchased In-house HTRF panel (56 kinases) and PerkinElmer (161-kinase panel)
Description: as §1

PKCb2 = target: T15, PKCb2 (Homo sapiens, UniProt P05771); conditions: 100 nM; read-out: Average Percent Inhibition
T15 construct: purchased In-house HTRF panel (56 kinases) and PerkinElmer (161-kinase panel)
Description: as §1

GSK3B = target: T16, GSK3B (Homo sapiens, UniProt P49841); conditions: 100 nM; read-out: Average Percent Inhibition
T16 construct: purchased In-house HTRF panel (56 kinases) and PerkinElmer (161-kinase panel)
Description: as §1

c-Raf = target: T17, c-Raf (Homo sapiens, UniProt P04049); conditions: 100 nM; read-out: Average Percent Inhibition
T17 construct: purchased In-house HTRF panel (56 kinases) and PerkinElmer (161-kinase panel)
Description: as §1

FGFR3 [K650E] = target: T18, FGFR3 [K650E] (Homo sapiens, UniProt P22607, K650E); conditions: 100 nM; read-out: Average Percent Inhibition
T18 construct: purchased In-house HTRF panel (56 kinases) and PerkinElmer (161-kinase panel)
Description: as §1

DDR2 = target: T19, DDR2 (Homo sapiens, UniProt Q16832); conditions: 100 nM; read-out: Average Percent Inhibition
T19 construct: purchased In-house HTRF panel (56 kinases) and PerkinElmer (161-kinase panel)
Description: as §1

PDGFR_alpha = target: T20, PDGFR_alpha (Homo sapiens, UniProt P16234); conditions: 100 nM; read-out: Average Percent Inhibition
T20 construct: purchased In-house HTRF panel (56 kinases) and PerkinElmer (161-kinase panel)
Description: as §1

MAPKAPK2 = MAPKAPK2 (Homo sapiens, UniProt P49137); conditions: 100 nM; read-out: Average Percent Inhibition
Description: as §1

CSNK1A1 = target: T21, CSNK1A1 (Homo sapiens, UniProt P48729); conditions: 100 nM; read-out: Average Percent Inhibition
T21 construct: purchased In-house HTRF panel (56 kinases) and PerkinElmer (161-kinase panel)
Description: as §1

DCAMKL1 = target: T22, DCAMKL1 (Homo sapiens, UniProt O15075); conditions: 100 nM; read-out: Average Percent Inhibition
T22 construct: purchased In-house HTRF panel (56 kinases) and PerkinElmer (161-kinase panel)
Description: as §1

PRKCI (PKC-iota) = target: T23, PRKCI (PKC-iota) (Homo sapiens, UniProt P41743); conditions: 100 nM; read-out: Average Percent Inhibition
T23 construct: purchased In-house HTRF panel (56 kinases) and PerkinElmer (161-kinase panel)
Description: as §1

MAPKAPK3 = target: T24, MAPKAPK3 (Homo sapiens, UniProt Q16644); conditions: 100 nM; read-out: Average Percent Inhibition
T24 construct: purchased In-house HTRF panel (56 kinases) and PerkinElmer (161-kinase panel)
Description: as §1

PRKX = target: T25, PRKX (Homo sapiens, UniProt P51817); conditions: 100 nM; read-out: Average Percent Inhibition
T25 construct: purchased In-house HTRF panel (56 kinases) and PerkinElmer (161-kinase panel)
Description: as §1

HER4 = target: T26, HER4 (Homo sapiens, UniProt Q15303); conditions: 100 nM; read-out: Average Percent Inhibition
T26 construct: purchased In-house HTRF panel (56 kinases) and PerkinElmer (161-kinase panel)
Description: as §1

LYNB = target: T27, LYNB (Homo sapiens, UniProt P07948); conditions: 100 nM; read-out: Average Percent Inhibition
T27 construct: purchased In-house HTRF panel (56 kinases) and PerkinElmer (161-kinase panel)
Description: as §1

GCK = target: T28, GCK (Homo sapiens, UniProt Q12851); conditions: 100 nM; read-out: Average Percent Inhibition
T28 construct: purchased In-house HTRF panel (56 kinases) and PerkinElmer (161-kinase panel)
Description: as §1

Ca MK1a = target: T29, Ca MK1a (Homo sapiens, UniProt Q14012); conditions: 100 nM; read-out: Average Percent Inhibition
T29 construct: purchased In-house HTRF panel (56 kinases) and PerkinElmer (161-kinase panel)
Description: as §1

MARK2 = target: T30, MARK2 (Homo sapiens, UniProt Q7KZI7); conditions: 100 nM; read-out: Average Percent Inhibition
T30 construct: purchased In-house HTRF panel (56 kinases) and PerkinElmer (161-kinase panel)
Description: as §1

LOK = LOK (Homo sapiens, UniProt O94804); conditions: 100 nM; read-out: Average Percent Inhibition
Description: as §1

MET M1250T = target: T31, MET M1250T (Homo sapiens, UniProt P08581, M1250T); conditions: 100 nM; read-out: Average Percent Inhibition
T31 construct: purchased In-house HTRF panel (56 kinases) and PerkinElmer (161-kinase panel)
Description: as §1

FRK = target: T32, FRK (Homo sapiens, UniProt P42685); conditions: 100 nM; read-out: Average Percent Inhibition
T32 construct: purchased In-house HTRF panel (56 kinases) and PerkinElmer (161-kinase panel)
Description: as §1

EPHB2 = target: T33, EPHB2 (Homo sapiens, UniProt P29323); conditions: 100 nM; read-out: Average Percent Inhibition
T33 construct: purchased In-house HTRF panel (56 kinases) and PerkinElmer (161-kinase panel)
Description: as §1

AKT1 = AKT1 (Homo sapiens, UniProt P31749); conditions: 100 nM; read-out: Average Percent Inhibition
Description: as §1

PDGFR BETA = target: T34, PDGFR BETA (Homo sapiens, UniProt P09619); conditions: 100 nM; read-out: Average Percent Inhibition
T34 construct: purchased In-house HTRF panel (56 kinases) and PerkinElmer (161-kinase panel)
Description: as §1

EPHA5 = target: T35, EPHA5 (Homo sapiens, UniProt P54756); conditions: 100 nM; read-out: Average Percent Inhibition
T35 construct: purchased In-house HTRF panel (56 kinases) and PerkinElmer (161-kinase panel)
Description: as §1

CAMK2 = conditions: 100 nM
Description: as §1

FGR = target: T36, FGR (Homo sapiens, UniProt P09769); conditions: 100 nM; read-out: Average Percent Inhibition
T36 construct: purchased In-house HTRF panel (56 kinases) and PerkinElmer (161-kinase panel)
Description: as §1

Ca MKII_beta = target: T37, Ca MKII_beta (Homo sapiens, UniProt Q13554); conditions: 100 nM; read-out: Average Percent Inhibition
T37 construct: purchased In-house HTRF panel (56 kinases) and PerkinElmer (161-kinase panel)
Description: as §1

ITK = target: T38, ITK (Homo sapiens, UniProt Q08881); conditions: 100 nM; read-out: Average Percent Inhibition
T38 construct: purchased In-house HTRF panel (56 kinases) and PerkinElmer (161-kinase panel)
Description: as §1

T8 sequence (P06213 28-1382): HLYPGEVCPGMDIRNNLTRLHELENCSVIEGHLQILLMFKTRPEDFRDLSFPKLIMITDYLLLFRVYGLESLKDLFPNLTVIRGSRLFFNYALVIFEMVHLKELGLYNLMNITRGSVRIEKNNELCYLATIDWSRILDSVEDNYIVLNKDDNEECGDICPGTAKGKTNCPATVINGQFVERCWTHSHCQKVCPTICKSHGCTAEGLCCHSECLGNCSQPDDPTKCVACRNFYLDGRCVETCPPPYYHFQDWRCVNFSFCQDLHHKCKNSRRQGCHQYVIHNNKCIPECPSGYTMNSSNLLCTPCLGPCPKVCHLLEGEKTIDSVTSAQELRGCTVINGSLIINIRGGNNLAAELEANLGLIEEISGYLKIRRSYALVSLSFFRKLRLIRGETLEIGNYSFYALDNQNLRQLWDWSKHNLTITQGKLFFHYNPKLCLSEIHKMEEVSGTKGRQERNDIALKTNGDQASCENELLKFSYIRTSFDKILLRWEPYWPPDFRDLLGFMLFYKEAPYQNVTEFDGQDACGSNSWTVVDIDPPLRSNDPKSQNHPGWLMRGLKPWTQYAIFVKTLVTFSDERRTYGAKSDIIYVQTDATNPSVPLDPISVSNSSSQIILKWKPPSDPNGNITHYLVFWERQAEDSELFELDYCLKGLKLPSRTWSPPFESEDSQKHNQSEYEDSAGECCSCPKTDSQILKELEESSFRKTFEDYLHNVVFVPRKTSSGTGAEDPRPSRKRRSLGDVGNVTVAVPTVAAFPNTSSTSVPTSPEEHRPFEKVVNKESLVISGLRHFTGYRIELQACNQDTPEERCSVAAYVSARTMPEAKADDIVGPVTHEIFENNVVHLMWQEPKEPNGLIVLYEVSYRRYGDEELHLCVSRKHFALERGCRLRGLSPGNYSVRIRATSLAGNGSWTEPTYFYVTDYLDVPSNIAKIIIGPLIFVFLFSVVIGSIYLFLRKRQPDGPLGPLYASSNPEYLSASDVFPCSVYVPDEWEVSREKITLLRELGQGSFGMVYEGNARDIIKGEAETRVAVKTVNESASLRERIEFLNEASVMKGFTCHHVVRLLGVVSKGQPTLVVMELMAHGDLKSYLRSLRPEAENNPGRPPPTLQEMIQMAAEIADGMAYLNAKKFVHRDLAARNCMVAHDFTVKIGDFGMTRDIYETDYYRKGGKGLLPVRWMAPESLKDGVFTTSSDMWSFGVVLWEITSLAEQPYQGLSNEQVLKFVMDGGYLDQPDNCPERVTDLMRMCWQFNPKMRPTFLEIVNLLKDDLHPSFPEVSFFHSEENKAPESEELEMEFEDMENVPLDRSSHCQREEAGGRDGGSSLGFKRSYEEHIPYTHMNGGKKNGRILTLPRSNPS
T26 sequence (Q15303 26-1308): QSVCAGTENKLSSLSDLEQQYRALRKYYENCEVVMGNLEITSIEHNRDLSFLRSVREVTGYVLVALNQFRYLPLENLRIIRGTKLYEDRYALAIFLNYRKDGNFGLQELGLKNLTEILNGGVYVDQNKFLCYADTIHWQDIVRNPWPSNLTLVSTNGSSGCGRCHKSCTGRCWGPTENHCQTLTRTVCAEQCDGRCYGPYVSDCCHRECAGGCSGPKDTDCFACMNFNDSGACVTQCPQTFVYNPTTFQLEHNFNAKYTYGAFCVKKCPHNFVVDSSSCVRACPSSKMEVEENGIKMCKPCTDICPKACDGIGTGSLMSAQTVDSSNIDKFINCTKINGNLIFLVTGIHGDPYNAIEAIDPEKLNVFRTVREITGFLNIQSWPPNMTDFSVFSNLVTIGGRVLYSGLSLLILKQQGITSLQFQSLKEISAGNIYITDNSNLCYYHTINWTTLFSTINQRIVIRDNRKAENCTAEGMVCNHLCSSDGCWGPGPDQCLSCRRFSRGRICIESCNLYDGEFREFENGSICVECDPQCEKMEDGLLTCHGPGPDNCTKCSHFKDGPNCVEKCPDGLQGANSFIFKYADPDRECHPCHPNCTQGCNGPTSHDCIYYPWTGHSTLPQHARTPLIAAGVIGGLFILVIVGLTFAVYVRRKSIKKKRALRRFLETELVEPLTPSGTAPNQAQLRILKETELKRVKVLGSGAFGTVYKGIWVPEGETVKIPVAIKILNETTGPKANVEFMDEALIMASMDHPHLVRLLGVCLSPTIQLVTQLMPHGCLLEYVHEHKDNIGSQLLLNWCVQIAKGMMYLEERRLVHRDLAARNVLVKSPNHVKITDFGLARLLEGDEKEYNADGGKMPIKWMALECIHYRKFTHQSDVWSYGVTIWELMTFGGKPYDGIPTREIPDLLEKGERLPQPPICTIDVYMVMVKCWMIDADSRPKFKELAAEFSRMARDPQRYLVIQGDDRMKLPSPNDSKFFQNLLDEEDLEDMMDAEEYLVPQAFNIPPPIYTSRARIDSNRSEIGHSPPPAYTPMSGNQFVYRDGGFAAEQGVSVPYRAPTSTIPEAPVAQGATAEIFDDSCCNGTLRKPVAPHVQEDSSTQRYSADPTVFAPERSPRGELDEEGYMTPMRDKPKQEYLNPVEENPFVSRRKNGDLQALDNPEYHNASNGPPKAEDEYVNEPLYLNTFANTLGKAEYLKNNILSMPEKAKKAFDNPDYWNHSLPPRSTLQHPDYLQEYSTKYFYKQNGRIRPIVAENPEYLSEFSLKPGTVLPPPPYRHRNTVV
T12 sequence (P30530 26-894, species assumed): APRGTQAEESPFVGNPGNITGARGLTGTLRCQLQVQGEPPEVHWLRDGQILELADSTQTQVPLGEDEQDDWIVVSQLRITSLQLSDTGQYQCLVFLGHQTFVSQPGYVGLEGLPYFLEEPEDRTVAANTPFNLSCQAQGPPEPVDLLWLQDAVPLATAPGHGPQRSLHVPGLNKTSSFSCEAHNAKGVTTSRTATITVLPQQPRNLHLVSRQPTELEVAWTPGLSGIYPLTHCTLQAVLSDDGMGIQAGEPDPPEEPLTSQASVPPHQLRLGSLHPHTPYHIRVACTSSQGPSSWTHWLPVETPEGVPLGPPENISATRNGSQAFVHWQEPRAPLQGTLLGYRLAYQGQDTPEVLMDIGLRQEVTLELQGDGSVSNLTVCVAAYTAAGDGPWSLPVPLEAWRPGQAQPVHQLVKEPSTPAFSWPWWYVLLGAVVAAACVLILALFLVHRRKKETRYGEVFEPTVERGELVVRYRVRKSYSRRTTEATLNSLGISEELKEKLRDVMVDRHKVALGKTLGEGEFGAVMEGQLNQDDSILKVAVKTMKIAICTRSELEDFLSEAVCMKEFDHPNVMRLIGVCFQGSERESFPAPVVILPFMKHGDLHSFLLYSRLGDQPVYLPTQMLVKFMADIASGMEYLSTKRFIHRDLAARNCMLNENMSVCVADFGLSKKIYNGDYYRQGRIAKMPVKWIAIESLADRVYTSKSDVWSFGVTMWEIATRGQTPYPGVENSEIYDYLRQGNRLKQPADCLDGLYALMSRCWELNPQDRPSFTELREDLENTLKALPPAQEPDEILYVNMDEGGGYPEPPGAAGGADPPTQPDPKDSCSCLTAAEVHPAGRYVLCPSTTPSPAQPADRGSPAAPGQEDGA
T9 sequence (P07332 whole entry): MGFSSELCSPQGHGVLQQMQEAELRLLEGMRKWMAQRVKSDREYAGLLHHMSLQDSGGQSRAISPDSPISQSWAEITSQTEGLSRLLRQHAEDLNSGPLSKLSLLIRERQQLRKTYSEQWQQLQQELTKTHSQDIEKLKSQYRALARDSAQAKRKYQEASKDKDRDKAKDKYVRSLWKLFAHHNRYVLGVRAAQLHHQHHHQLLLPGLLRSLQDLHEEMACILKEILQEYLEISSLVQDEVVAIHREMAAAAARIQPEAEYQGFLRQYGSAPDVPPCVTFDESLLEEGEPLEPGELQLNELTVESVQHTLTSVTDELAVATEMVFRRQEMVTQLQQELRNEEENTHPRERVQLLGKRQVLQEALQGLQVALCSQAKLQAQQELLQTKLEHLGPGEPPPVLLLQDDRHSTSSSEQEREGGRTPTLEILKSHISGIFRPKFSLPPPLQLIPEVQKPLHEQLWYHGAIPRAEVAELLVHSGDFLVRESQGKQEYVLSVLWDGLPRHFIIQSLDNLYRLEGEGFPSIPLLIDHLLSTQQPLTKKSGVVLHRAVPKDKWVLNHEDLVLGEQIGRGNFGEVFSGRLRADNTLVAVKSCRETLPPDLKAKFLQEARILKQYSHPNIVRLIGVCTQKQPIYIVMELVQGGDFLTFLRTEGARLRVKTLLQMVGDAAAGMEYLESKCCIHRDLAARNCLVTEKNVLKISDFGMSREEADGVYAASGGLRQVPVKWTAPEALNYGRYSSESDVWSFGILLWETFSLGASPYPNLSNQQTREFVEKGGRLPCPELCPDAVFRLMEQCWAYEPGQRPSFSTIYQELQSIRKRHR
T27 sequence (P07948 1-491 isoform P07948-2): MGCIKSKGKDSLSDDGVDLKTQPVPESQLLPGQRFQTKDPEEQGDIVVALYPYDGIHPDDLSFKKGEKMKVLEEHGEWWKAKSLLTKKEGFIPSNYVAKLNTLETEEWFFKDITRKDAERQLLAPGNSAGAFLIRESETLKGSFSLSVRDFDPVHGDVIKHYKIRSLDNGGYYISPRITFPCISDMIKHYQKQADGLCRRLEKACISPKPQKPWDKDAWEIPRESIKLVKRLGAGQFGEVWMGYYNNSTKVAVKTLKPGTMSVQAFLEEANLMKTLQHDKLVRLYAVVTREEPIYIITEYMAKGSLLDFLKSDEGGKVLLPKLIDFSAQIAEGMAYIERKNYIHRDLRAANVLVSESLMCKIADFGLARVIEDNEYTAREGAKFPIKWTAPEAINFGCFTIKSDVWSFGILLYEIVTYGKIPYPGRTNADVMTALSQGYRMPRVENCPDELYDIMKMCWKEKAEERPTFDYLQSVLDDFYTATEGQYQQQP

CCN1C(=O)N(c2c(F)c(OC)cc(OC)c2F)Cc2cnc3[nH]c(CN4CCOCC4)cc3c21 [INCB054828, pemigatinib]
inhibition at 0.1 µM (AKT2): 2%
inhibition at 0.1 µM (RET): 7%
inhibition at 0.1 µM (Flt3(D835Y)): 1%
inhibition at 0.1 µM (PAK2): 0%
inhibition at 0.1 µM (PKA): 1%
inhibition at 0.1 µM (EPHB4): 4%
inhibition at 0.1 µM (DAPK1): 1%
inhibition at 0.1 µM (PHKG2): -1%
inhibition at 0.1 µM (INSR): 1%
inhibition at 0.1 µM (FES): -11%
inhibition at 0.1 µM (Abl (H396P)): -1%
inhibition at 0.1 µM (Hck): -3%
inhibition at 0.1 µM (AXL): -8%
inhibition at 0.1 µM (PASK): -7%
inhibition at 0.1 µM (FLT1): 13%
inhibition at 0.1 µM (PKCb2): 0%
inhibition at 0.1 µM (GSK3B): -1%
inhibition at 0.1 µM (c-Raf): 3%
inhibition at 0.1 µM (FGFR3 [K650E]): 84%
inhibition at 0.1 µM (DDR2): -1%
inhibition at 0.1 µM (PDGFR_alpha): -4%
inhibition at 0.1 µM (MAPKAPK2): 0%
inhibition at 0.1 µM (CSNK1A1): -1%
inhibition at 0.1 µM (DCAMKL1): -4%
inhibition at 0.1 µM (PRKCI (PKC-iota)): 3%
inhibition at 0.1 µM (MAPKAPK3): 1%
inhibition at 0.1 µM (PRKX): 0%
inhibition at 0.1 µM (HER4): -15%
inhibition at 0.1 µM (LYNB): 9%
inhibition at 0.1 µM (GCK): 1%
inhibition at 0.1 µM (Ca MK1a): 3%
inhibition at 0.1 µM (MARK2): 5%
inhibition at 0.1 µM (LOK): -1%
inhibition at 0.1 µM (MET M1250T): 1%
inhibition at 0.1 µM (FRK): 0%
inhibition at 0.1 µM (EPHB2): 3%
inhibition at 0.1 µM (AKT1): 2%
inhibition at 0.1 µM (PDGFR BETA): 6%
inhibition at 0.1 µM (EPHA5): 2%
Average Percent Inhibition (CAMK2): 2%
inhibition at 0.1 µM (FGR): 3%
inhibition at 0.1 µM (Ca MKII_beta): -9%
inhibition at 0.1 µM (ITK): 2%
